From patent publication US20070254952A1, “CANNABINOID RECEPTOR MODULATORS” (priority 2006, published 2007)

How the values were obtained:
[1] = molecular target: T1, CB2 receptor (Homo sapiens, UniProt P34972); assay: Competition binding assay for cannabinoid CB2 affinity (3H-CP55,940 displacement, membranes); conditions: membranes from cells expressing the receptor, 0.5 nM 3H-CP55,940; Ki by Cheng and Prusoff
T1 construct: purchased
Protocol: (§1) Competition binding assays for cannabinoid CB1 and CB2 affinity were performed by incubating commercially purchased membranes prepared from cells expressing each receptor subtype (8 μg pro) with 0.5 nM ^3H-CP55,940, a non-selective cannabinoid agonist, along with concentrations of drug ranging from 0.0001-3 μM in Buffer A (5 mM MgCl2, 2.5 mM EDTA and […] BSA). Non-specific binding was defined in the presence of 10 μM CP55,940. For saturation studies, concentrations of ^3H-CP55,940 ranging from 0.1-5 nM were incubated with membranes in the presence and absence of 10 μM CP55,940. Assays were terminated after incubation for 1½ hours by rapid filtration onto 0.3% polyethylenamine treated GF/C filterplates using a BRANDEL cell harvester. The plates were dried and MICROSCINT scintillation cocktail was added, after which the bound radioactivity was quantified using a TOPCOUNT scintillation counter.
(§2) The dissociation constant (Kd) of ^3H-CP55,940 at the CB1 and CB2 receptor were determined by plotting specific binding at each concentration of radioligand, and analysis by non-linear regression. For competition studies, the concentration of each drug that inhibited 50 percent of ^3H-CP55,940 binding (IC50) was determined by non-linear regression analysis of the radioligand displacement curves. Affinity constants (Ki) were calculated using the equation derived by Cheng and Prusoff (1973), defined as: IC50/1+[conc. ligand/Kd].

[2] = molecular target: T2, CB1 receptor (Homo sapiens, UniProt P21554); assay: Competition binding assay for cannabinoid CB1 affinity (3H-CP55,940 displacement, membranes); conditions: membranes from cells expressing the receptor, 0.5 nM 3H-CP55,940; Ki by Cheng and Prusoff
T2 construct: purchased
Protocol: as §1, §2

T2 sequence (P21554 whole entry): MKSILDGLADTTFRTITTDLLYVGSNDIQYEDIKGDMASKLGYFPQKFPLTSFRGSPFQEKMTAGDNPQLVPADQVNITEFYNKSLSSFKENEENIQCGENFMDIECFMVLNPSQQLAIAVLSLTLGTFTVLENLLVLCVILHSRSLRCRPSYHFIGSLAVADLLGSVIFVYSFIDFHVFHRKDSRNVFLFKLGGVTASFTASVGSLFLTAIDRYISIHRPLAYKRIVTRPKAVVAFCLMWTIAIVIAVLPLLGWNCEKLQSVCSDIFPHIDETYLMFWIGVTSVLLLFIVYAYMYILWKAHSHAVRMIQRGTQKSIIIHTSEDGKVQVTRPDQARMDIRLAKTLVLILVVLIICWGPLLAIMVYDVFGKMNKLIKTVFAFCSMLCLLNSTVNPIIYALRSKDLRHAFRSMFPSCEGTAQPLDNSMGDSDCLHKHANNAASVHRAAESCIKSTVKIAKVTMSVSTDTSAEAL
T1 sequence (P34972 whole entry): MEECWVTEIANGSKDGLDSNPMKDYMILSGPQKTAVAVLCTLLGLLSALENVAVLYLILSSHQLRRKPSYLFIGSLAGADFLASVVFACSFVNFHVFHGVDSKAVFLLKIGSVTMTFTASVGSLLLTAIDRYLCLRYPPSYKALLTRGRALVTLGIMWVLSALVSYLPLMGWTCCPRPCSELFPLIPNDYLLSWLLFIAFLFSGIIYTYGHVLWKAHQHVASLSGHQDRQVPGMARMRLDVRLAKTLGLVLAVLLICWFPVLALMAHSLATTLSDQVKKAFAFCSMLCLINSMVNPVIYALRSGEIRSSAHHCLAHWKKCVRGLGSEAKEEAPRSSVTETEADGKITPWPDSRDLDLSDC

SMILES	Ki [1]	Ki [2]
Fc1ccc(OC[C@@H]2C[C@H](c3ccc(Cl)cc3)[C@H](c3ccc(Cl)cc3Cl)C2)cc1F [Compound 17]	> 1800 nM	12.5 nM
N#Cc1ccc(NC[C@@H]2C[C@H](c3ccc(Cl)cc3)[C@H](c3ccc(Cl)cc3Cl)C2)cc1 [Compound 15]	> 1500 nM	1 nM
N#Cc1ccc(NC[C@H]2C[C@H](c3ccc(Cl)cc3)[C@H](c3ccc(Cl)cc3Cl)C2)cc1 [Compound 16]	> 1500 nM	> 1500 nM
N#Cc1ccc(OC[C@@H]2C[C@H](c3ccc(Cl)cc3)[C@H](c3ccc(Cl)cc3Cl)C2)cc1 [Compound 18]	> 1500 nM	1.86 nM
N#Cc1ccc(CNC[C@@H]2C[C@H](c3ccc(Cl)cc3)[C@H](c3ccc(Cl)cc3Cl)C2)cc1 [Compound 14]	> 1800 nM	12.7 nM
